Like-named read-outs stand apart in the source and are kept apart here.
How the values were obtained:
DU145 cells = settings: for Duplication time: DU145, 2-D culture, n = 3; for Maximal cellular densities: reached at day 5
Protocol: (§3) All cancer and non-cancer cell lines used were purchased from ATCC and cultured in DMEM (Sigma-Aldrich) supplemented with 10% fetal bovine serum (Biowest, Nuaillé, France) and 10,000 U penicillin/streptomycin (Sigma-Aldrich) and placed under a humidified atmosphere of 5% CO2/95% air at 37°C.
(§4) Cell growth was followed by counting cellular density every 24 h during 7 to 8 days. […] The duplication time was determined by using the following equation: n=1/[3.32(logNF-logNI)]/(tF-tI) , where NF represents the number of cultured cells at the end of the exponential growth phase; NI represents the number of cells at the beginning of the growth curve; tF is the final time at which cells were harvested, and tI is the initial culture time. The specific growth rate μ was calculated from the slope of a semilogarithmic plot of cell densities in the exponential growth phase vs. time ([88]).

Colo 205 cells = settings: for Duplication time: Colo 205, 2-D culture, n = 3; for Maximal cellular densities: reached at day 6
Protocol: as §3, §4

MDA-MB-231 MCTS = experiment: MDA-MB-231 multicellular tumor spheroid (MCTS) growth with ammonium; type: cell-based, human
Protocol: (§1) After 5 days, the culture medium was refreshed, and the MCTSs formed were placed under slow orbital shaking (20–50 rpm) at 37°C and 95% air/5% CO2. […] The spheroid growth was determined at the indicated times by measuring MCTS diameter with a calibrated reticule (1/10 mm) in an inverted phase contrast microscope (Zeiss, Thornwood, NY, USA) ([86]).

MCF-7 cells [1] = tested on: MCF-7 cells; design: method as in PMID 28303961; settings: MCF-7, ammonium 2–5 mM; cited from earlier work
HeLa MCTS = experiment: HeLa multicellular tumor spheroid (MCTS) growth with ammonium; type: cell-based, human
Protocol: as §1

3T3 fibroblasts = settings: for Duplication time: 3T3, 2-D culture, n = 3; for Maximal cellular densities: reached at day 5
Protocol: as §3, §4

GDH in HepM and RLM = GDH in HepM and RLM (Rattus norvegicus, UniProt P10860); experiment: GDH reverse reaction kinetics, summary statements for HepM and RLM; type: biochemical
Protocol: The decrease in the absorbance at 340 nm was followed for several minutes (~10 min) to allow for full development of the pronounced enzyme hysteretic behavior, although the initial signal decrease (1–3 min) was taken to calculate the GDH rates. The protein concentration ranges used for each mitochondrial type were well within the linearity range of enzyme activity. To calculate the kinetic parameters, the experimental data were fitted by non-linear regression analysis to the Hill or MWC equation, using the Microcal Origin 5.0 software (OriginLab, Northampton, MA, USA).

HepM GDH1 = HepM GDH1 (Rattus norvegicus, UniProt P10860); experiment: GDH reverse (aminating) reaction activity in hepatoma mitochondria (HepM); type: biochemical; settings: HepM; for K0.5 NH4+: reverse reaction, Hill equation; for Km: read-out: Km NH4+
Protocol: (§2) Tightly coupled mitochondria were isolated from fed-rat liver (RLM) and AS-30D cells (HepM) as described elsewhere ([89], [90]). […] The resulting mitochondrial fractions were resuspended at 30 to 80 mg protein/mL in SHE buffer with 1 mM PMSF, 1 mM EDTA, 5 mM DTT, and 10% glycerol, and stored at −70°C until use for determination of enzyme activity and Western blotting.

[2] = tested on: recombinant human GDH isoforms (GDH1 and GDH2), bovine liver GDH, Ox brain GDH, dogfish liver GDH, rat brain GDH, and bovine brain GDH isoforms; design: method as in PMID 4381532, PMID 7588764, PMID 17924438, PMID 23420347, PMID 7190024; settings: pH range of 7.4–8.7; cited from earlier work
SiHa cells = settings: for Duplication time: 2-D culture, n = 3; for Maximal cellular densities: reached at day 6
Protocol: as §3, §4

PC3 cells = settings: for Maximal cellular densities: reached at day 5
Protocol: as §3, §4

HFF-1 fibroblasts = settings: for Duplication time: HFF-1, 2-D culture, n = 3; for Maximal cellular densities: reached at day 5
Protocol: as §3, §4

GDH = settings: GDH1, reported values; cited from earlier work
HCT116 cells = settings: for Duplication time: HCT116, 2-D culture, n = 3; for Maximal cellular densities: reached at day 7
Protocol: as §3, §4

A549 cells = settings: for Duplication time: A549, 2-D culture, n = 3; for Maximal cellular densities: reached at day 6
Protocol: as §3, §4

MDA-MB-231 cells = settings: for Duplication time: MDA-MB-231, 2-D culture, n = 3
Protocol: as §3, §4

cancer cells = experiment: Viability by trypan blue assay in 2-D cultures with ammonium; type: cell-based, human; settings: all culture conditions
RLM GDH1 = RLM GDH1 (Rattus norvegicus, UniProt P10860); experiment: GDH reverse (aminating) reaction activity in rat liver mitochondria (RLM); type: biochemical; settings: RLM; for K0.5 NH4+: reverse reaction, Hill equation; for Km: read-out: Km NH4+
Protocol: as §2

[3] = tested on: total GDH activity (GDH1 + GDH2) in HeLa and MCF-7 cells; settings: 5 mM NH4Cl in culture medium, 5 days, data not shown
MCF-7 cells [4] = settings: for Duplication time: MCF-7, 2-D culture, n = 3; for Maximal cellular densities: reached at day 6
Protocol: as §3, §4

[5] = pH 7.2, MWC equation, GTP inhibition, saturating ADP
[6] = pH 7.5, MWC equation, GTP inhibition, saturating ADP

RLM GDH1, sequence (P10860 54-558): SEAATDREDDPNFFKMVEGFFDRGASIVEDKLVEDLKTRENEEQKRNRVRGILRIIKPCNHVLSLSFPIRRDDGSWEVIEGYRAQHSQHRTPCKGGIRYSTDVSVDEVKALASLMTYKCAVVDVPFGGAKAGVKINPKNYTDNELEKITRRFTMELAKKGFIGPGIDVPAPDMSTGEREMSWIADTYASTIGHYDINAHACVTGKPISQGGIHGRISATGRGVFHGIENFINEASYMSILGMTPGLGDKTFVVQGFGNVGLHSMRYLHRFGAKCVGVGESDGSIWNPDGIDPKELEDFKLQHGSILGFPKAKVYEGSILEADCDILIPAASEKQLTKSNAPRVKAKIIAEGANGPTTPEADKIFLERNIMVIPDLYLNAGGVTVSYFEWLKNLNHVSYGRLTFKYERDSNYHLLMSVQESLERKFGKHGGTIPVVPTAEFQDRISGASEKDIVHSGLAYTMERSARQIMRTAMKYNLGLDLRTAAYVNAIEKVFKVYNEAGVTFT
HepM GDH1, sequence (P10860 54-558): as above
GDH in HepM and RLM, sequence (P10860 54-558): as above

Cl.N [NH4Cl, Ammonium chloride]
Proliferation rates (DU145 cells; DU145, 0.1 and 0.5 mM NH4Cl, data not shown): increased proliferation rates
Duplication time (DU145 cells; +5 mM NH4Cl): 32 ± 2 h
Duplication time (DU145 cells; +10 mM NH4Cl): 35 ± 3 h
Maximal cellular densities (DU145 cells; DU145, +5 mM NH4Cl): 92 ± 6 ×10^3
Maximal cellular densities (DU145 cells; DU145, +10 mM NH4Cl): 85 ± 4 ×10^3
Duplication time (Colo 205 cells; +5 mM NH4Cl): 48 ± 2 h
Duplication time (Colo 205 cells; +10 mM NH4Cl): 44 ± 4 h
Maximal cellular densities (Colo 205 cells; Colo 205, +5 mM NH4Cl): 68 ± 6 ×10^3
Maximal cellular densities (Colo 205 cells; Colo 205, +10 mM NH4Cl): 66 ± 6 ×10^3
MCTS growth (diameter) (MDA-MB-231 MCTS; ammonium 10 mM): clearly toxic
MCTS growth (diameter) (MDA-MB-231 MCTS; ammonium 0.5–5 mM): promoted enhanced growth rates
Cell proliferation (MCF-7 cells [1]): only slightly stimulated
MCTS growth (diameter) (HeLa MCTS; 5 and 10 mM ammonium): inhibited
MCTS growth (diameter) (HeLa MCTS; ammonium supplementation): did not stimulate growth
Duplication time (3T3 fibroblasts; +5 mM NH4Cl): 46 ± 2 h
Duplication time (3T3 fibroblasts; +10 mM NH4Cl): 60 ± 1 h
Maximal cellular densities (3T3 fibroblasts; 3T3, +5 mM NH4Cl): 45 ± 3 ×10^3
Maximal cellular densities (3T3 fibroblasts; 3T3, +10 mM NH4Cl): 36 ± 2 ×10^3
IC50 (3T3 fibroblasts; read-out: IC50 for decrease of growth, mouse 3T3 fibroblasts, data not shown): ~1000 µM
K0.5 for NH4+ (GDH in HepM and RLM; Hill equation, HepM and RLM, summary): over 20 mM
Km (GDH in HepM and RLM; MWC equation, pH 7.5, summary of Table 3, read-out: Km for ammonium): ~9 mM
K0.5 NH4+ (HepM GDH1; pH 7.2, 37°C): 25.2 ± 8 mM
nH (Hill coefficient) for NH4+ (HepM GDH1; pH 7.2, Hill equation): 2.12 ± 0.7
Km (HepM GDH1; [5]): 12 ± 2.6 mM
Km (HepM GDH1; pH 7.2, MWC equation, with ADP): 11.2 ± 3.5 mM
K0.5 NH4+ (HepM GDH1; pH 7.5, 37°C): 26.8 ± 7.2 mM
nH (Hill coefficient) for NH4+ (HepM GDH1; pH 7.5, Hill equation): 1.5 ± 0.7
Km (HepM GDH1; [6]): 10.3 ± 2.6 mM
Km (HepM GDH1; pH 7.5, MWC equation, with ADP): 9.3 ± 7.2 mM
K0.5 NH4+ [2]: 6.5 to 80 mM
Duplication time (SiHa cells; +5 mM NH4Cl): 51 ± 4 h
Duplication time (SiHa cells; +10 mM NH4Cl): 55 ± 5 h
Maximal cellular densities (SiHa cells; +5 mM NH4Cl): 86 ± 7 ×10^3
Maximal cellular densities (SiHa cells; +10 mM NH4Cl): 82 ± 5 ×10^3
Duplication time (PC3 cells; PC3, 2-D culture, +10 mM NH4Cl, n = 3): 26 ± 1 h
Maximal cellular densities (PC3 cells; PC3, +5 mM NH4Cl): 136 ± 2 ×10^3
Maximal cellular densities (PC3 cells; PC3, +10 mM NH4Cl): 141 ± 1.4 ×10^3
Duplication time (HFF-1 fibroblasts; +5 mM NH4Cl): 38 ± 12 h
Duplication time (HFF-1 fibroblasts; +10 mM NH4Cl): 55 ± 2 h
Maximal cellular densities (HFF-1 fibroblasts; HFF-1, +5 mM NH4Cl): 60 ± 10 ×10^3
Maximal cellular densities (HFF-1 fibroblasts; HFF-1, +10 mM NH4Cl): 46 ± 3 ×10^3
IC50 (HFF-1 fibroblasts; read-out: IC50 for decrease of growth, human HFF-1 fibroblasts, data not shown): ~1000 µM
reported K0.5 for ammonium (GDH): 15 to 60 mM
Duplication time (HCT116 cells; +5 mM NH4Cl): 45 ± 1 h
Duplication time (HCT116 cells; +10 mM NH4Cl): 39 ± 2 h
Maximal cellular densities (HCT116 cells; HCT116, +5 mM NH4Cl): 76 ± 11 ×10^3
Maximal cellular densities (HCT116 cells; HCT116, +10 mM NH4Cl): 80 ± 13 ×10^3
Duplication time (A549 cells; +5 mM NH4Cl): 20 ± 2 h
Duplication time (A549 cells; +10 mM NH4Cl): 17 ± 3 h
Maximal cellular densities (A549 cells; A549, +5 mM NH4Cl): 49 ± 4 ×10^3
Maximal cellular densities (A549 cells; A549, +10 mM NH4Cl): 56 ± 2 ×10^3
Duplication time (MDA-MB-231 cells; +5 mM NH4Cl): 26 ± 3 h
Duplication time (MDA-MB-231 cells; +10 mM NH4Cl): 25 ± 1 h
Maximal cellular densities (MDA-MB-231 cells; MDA-MB-231, +5 mM NH4Cl, reached at day 4): 145 ± 13 ×10^3
Rescue of growth after glutamine removal from the culture medium (MDA-MB-231 cells; MDA-MB-231, NH4Cl 1–10 mM, data not shown): did not rescue their growth
Viability (cancer cells): higher than 90%
K0.5 NH4+ (RLM GDH1; pH 7.2, 37°C): 23.9 ± 3.7 mM
nH (Hill coefficient) for NH4+ (RLM GDH1; pH 7.2, Hill equation): 1.97 ± 0.8
Km (RLM GDH1; [5]): 8.5 ± 4.5 mM
Km (RLM GDH1; pH 7.2, MWC equation, with ADP): 18 ± 11 mM
K0.5 NH4+ (RLM GDH1; pH 7.5, 37°C): 18.2 ± 5.9 mM
nH (Hill coefficient) for NH4+ (RLM GDH1; pH 7.5, Hill equation): 1.4 ± 0.4
Km (RLM GDH1; [6]): 5.6 ± 3.6 mM
Km (RLM GDH1; pH 7.5, MWC equation, with ADP): 8.8 ± 4.1 mM
Change of total GDH activity [3]: did not alter the total GDH activity or induced a slight (~20%) decrease
Duplication time (MCF-7 cells [4]; +5 mM NH4Cl): 37 ± 2 h
Duplication time (MCF-7 cells [4]; +10 mM NH4Cl): 45 ± 6 h
Maximal cellular densities (MCF-7 cells [4]; MCF-7, +5 mM NH4Cl): 72 ± 6 ×10^3
Maximal cellular densities (MCF-7 cells [4]; MCF-7, +10 mM NH4Cl): 76 ± 5 ×10^3

Source: publication PMC7160333, “Physiological Role of Glutamate Dehydrogenase in Cancer Cells” (Frontiers in Oncology, 2020)
